Assay results: patent US11123292B2, “Use of biocompatible microdroplets for the treatment of atherosclerosis, heart disease and stroke” (priority 2014, dated 2021)

Assays:
[1] = Relative Energy Difference (RED) with cholesterol, calculated from HSP; conditions: for Relative Energy Difference (RED) with cholesterol: RED=Ra/Ro, Ro of cholesterol 12.6
Protocol: The extent to which two compounds will dissolve each other can be quantified using the equations developed by Hansen: (Ra)^2=4(δd2−δd1)^2+(δp2−δp1)^2+(δh2−δh1)^2 Eq. (1) RED=Ra/Ro Eq. (2)
Equation 1 calculates the relative magnitude difference of the three Hansen parameters of the two compounds to arrive at Ra. […] Equation 2 allows one to calculate the Relative Energy Difference (RED) of the solvent and the material we are trying to dissolve, by dividing Ra by Ro. Ra was calculated in Equation 1 and measures the magnitude of the difference of the HSP values of the two compounds. The units for the HSP parameters δd, δp, δh are MPa^1/2. […] The Relative Energy Difference (RED) is a dimensionless number which quantifies how well a solvent will dissolve a solute. For an RED>>1 the compounds will not dissolve. For an RED˜1, there will be some dissolution. For an RED<1 there will be a considerable amount of dissolution. Essentially, the smaller RED value, the more solute will dissolve into the solvent, with RED=1 being a threshold where a given solute is starting to be soluble in a given solvent.
Referring now to FIG. 6, this diagram provides a flow chart showing how the biocompatible microdroplet solvent emulsion can be formulated. […] For an example of compounds which might be included in 400, please refer to Tables 1, 2, 3 and 4. However, this list of tables is by no means exhaustive and other compounds could be added to this list. The number of compounds selected can comprise of 1, 2, 3 or as many as are deemed necessary, which is symbolized by the variable n. The HSP parameters of a homogenous mixture of compounds are the weighted average of the HSP parameters of the individual components. […] Ideally, it is possible to formulate a solution such that the resultant RED of the mixture is smaller than the RED of any of the individual components.
The δdm, δpm, δhm calculated using Eq. 9 are the Hansen solubility parameters of the homogenous mixture, where m denotes mixture, and fi depicts the fraction of each of the n components used to fabricate the biocompatible solvent. Equation 10 can be used to calculate the RED of the final mixture, where Ro is the interaction radius of the cholesterol, or other component of arterial plaque one desires to dissolve using the biocompatible microdroplets and […] represents the Hansen solubility constants of cholesterol (dispersion, polar and hydrogen bonding components) or the HSP parameter of the arterial plaque which is being targeted.

[2] = single compound; cited from earlier work
[3] = Dissolving cholesterol by microdroplets in whole blood; conditions: whole blood
Excerpt: To effectively dissolve arterial plaque in-vivo it is very important that the biocompatible solvent be sufficiently insoluble in blood to allow a small discrete microdroplet to travel through the blood stream, from the injection point, to the plaque which is being treated. If the biocompatible solvent dissolves within the blood, such as an alcohol, the solubility parameters of the resultant mixture will be very nearly identical to that of blood and will not dissolve cholesterol or arterial plaque. Conversely, if a discrete microdroplet of the biocompatible solvent makes contact with the plaque, then the cholesterol molecule in the plaque will be surrounded by multiple molecules of the biocompatible solvent, which have similar solubility parameters as the cholesterol, and the cholesterol will be drawn away from the plaque and into the droplet. […] An organic salt, Esters, an organo-metallic compound could also be used as the main component or an addition to the biocompatible microdroplet solvent means. Essentially any organic molecule which can be administered intravenously with acceptable side effects, is sufficiently insoluble in blood to travel as a discrete microdroplet without being dissolved prior to reaching arterial plaque and which is capable of dissolving cholesterol, cholesterol esters or other materials within the arterial plaque, could potentially be used.
1,8-cineole is classified as a cyclic ether and a monoterpenoid. […] This chemical gives certain fruits such as apples and strawberries their fruity taste, and is used as an additive in bubble gums for this purpose. […] It is used as a fragrance or flavouring agent. […] It is produced natuarally by the organism, and is found in abundance in shark liver oil.

Compound	Relative Energy Difference (RED) with cholesterol [1]	δd London dispersion HSP parameter [2] [MPa^1/2]	δh hydrogen bonding HSP parameter [2] [MPa^1/2]	δp polarity HSP parameter [2] [MPa^1/2]	efficacy of microdroplets at dissolving cholesterol in whole blood [3]	Ra^2 versus cholesterol ([1]; Eq. 1)
CC1=CCC(=C(C)C)CC1 [Terpinolene]	0.70	16.9	4.1	1.8		
CC(C)=CCCC(C)CCO (stereo not drawn) [Citronellol]	0.72	16	10.7	4.7		
CC(C)=CCC/C(C)=C/CC/C(C)=C/CC/C=C(\C)CC/C=C(\C)CCC=C(C)C [Squalene]	0.52	17.6	6	3		
C=C(C)[C@H]1CC=C(C)CC1 (racemic) [Dipentene]		16.7	4	2.2		
CC(C)=CCCC(C)CC=O (stereo not drawn) [Citronellal]	0.78	16.2	5.2	5.9		
C=C(C)C1CC=C(C)C(=O)C1 (stereo not drawn) [Carvone]	0.5	18	6.4	5.6	excellent results	
C=CC(C)(C)C(=O)C=C(C)C [Artemisia Ketone]	0.83	15.9	5.1	5.8		
CC(C)=CCCC(C)=CCCC(C)=CCO [Farnesol]	0.65	16.4	7.7	3.8		
C=CC(=C)CCC=C(C)C [Myrcene]	0.78	16	5.1	2.2		
CC(C)=C1CC[C@@H](C)CC1=O [Pulegone]	0.74	17.5	5.5	8.9		
CC1CCC(C(C)C)C(O)C1 (stereo not drawn) [Menthol]	0.63	16.6	10.6	4.7		
C=CC(C)=CCC=C(C)C [Ocimene]	0.62	16.5	9.1	2		
CC(C)=CCCC(C)=CC=O [Citral]	0.7	16.3	6.2	2.3		
C=CC(C)(CCC=C(C)C)OC(C)=O (stereo not drawn) [Linalyl Acetate]	0.76	16	5.5	2.8		
C=CC(C)(O)CCC=C(C)CCC=C(C)C (stereo not drawn) [Nerolidol]	0.64	16.4	8.7	2.7		
CC1=CC(=O)C(C(C)C)CC1 (stereo not drawn) [Piperitone]	0.72	17	4.5	6.2		
CC(C)[C@@H]1CC[C@@H](C)CC1=O [Menthone]	0.79	17	4.4	8.1		
Bisabolene	0.73	16.7	4	2.2		
terpinene					excellent results	
C=CCc1ccc(O)c(OC)c1 [Eugenol]	0.53	18.1	11.6	7.1	excellent results	44
CC(C)=CCC[C@H](C)[C@@H]1C=CC(C)=CC1 [Zingiberene]	0.74	16.6	4.1	1.4		
C=C(C)C1CC=C(C=O)CC1 (stereo not drawn) [Perillaldehyde]	0.68	17.1	5.9	6.9		
CC(C)C12CCC(C)(CC1)O2 [1,4-Cineole]	0.70	17.1	3.7	3.6		
C=C(C)[C@@H]1CCC=C(C)C1 [Sylvestrene]	0.74	16.6	4.1	3		
Phellandrene	0.76	16.5	3.9	1.6		
